One data set relates to Enterococcus. The experiment in a line: Minimal inhibitory concentration (MIC), NCCLS guidelines.
The next data set relates to RAW264.7 cells. The class given is cell-based, mouse.
The conditions of data set [1]: co-administration of RIT with NFV in human subjects (Raines et al.); cited from earlier work.
Another data set concerns Pseudomonas aeruginosa. Put plainly: Minimal inhibitory concentration (MIC), NCCLS guidelines.
The next data set has as its system Eschericheria coli. Described as above. The class given is cell-based. The conditions noted are these: five clinical isolates.
Data set [2] has as its system Jurkat T cells. Put plainly: Fas signaling in Jurkat T cells stimulated with CH-11 anti-Fas antibody. Format: cell-based. The text has this:
Annexin-V and Propidium Iodide Staining. […] Western Blot Analysis. […] Fluorometric Caspase 8 and 3 Activity.

Data set [3] in a line: NFV and RIT concentrations in brain tissues of mice given NFV/RIT suspension. The class given is in vivo. The following applies: 3 doses of NFV/RIT suspension, whole brain removed immediately preceding the fourth dose, two mice; for concentration at 8 h: C57BL/6, mouse, brain, oral. The procedure: Supernatants were then analyzed as described herein for drug level determination. […] Given the significant drug levels achieved in the brains of these mice, the effects of PI in a mouse model of stroke could be examined.

Data set [4] is described as follows: Mouse pharmacokinetic studies: plasma drug concentrations by LC/MS/MS. The class given is in vivo, mice (BALB/C). The following applies: oral. The procedure:
Administration of PI for Experimental Protocols: Six to eight-week-old BALB/C mice (Jackson Labs, Bar Harbor, Me.) were acclimatized for one week before receiving either control vehicle or PI by gavage. PIs were prepared by dissolving 1% weight per volume carboxymethylcellulose and 15 mg/mL Nelfinavir (NFV) oral powder (commercial preparation, Agouron Laboratories, La Jolla, Calif.) in 2% ethanol in distilled water. […] The PI mixture was administered every 8 hours for the indicated number of doses and mice were either sacrificed for pharmacokinetic studies or treated as described. Histopathology was performed by a consulting veterinary pathologist who was blinded as to the nature of experimental treatments.
Immediately preceding the fourth dose and every two hours post gavage until hour 8, plasma drug concentrations were assayed. At both doses, NFV was undetectable (i.e. <2.5 ng/mL) 6 hours after dosing.
Drug levels were assessed in two mice each for several time-points. NFV levels were 8172 and 8914 ng/mL at 1 hour, 5999 and 6006 ng/mL at 2 hours, 5559 and 6048 ng/mL at 3 hours, and 4005 to 4217 ng/mL at 4 hours post-dosing.

In a further data set the test system is Streptococcus bovis. The experiment in a line: Minimal inhibitory concentration (MIC), NCCLS guidelines. The following applies: Streptococcus equinus.
For a further data set, the system named is wild type yeast. The experiment in a line: Yeast clonogenic assay of apoptosis (Vpr peptide or H2O2). The following applies: varying doses. The class given is cell-based, Saccharomyces cerevisiae.
The test system of another data set is PTPC. Put plainly: PTPC proteoliposomes, 4-MUP fluorescence release. The class given is biochemical, rat. The conditions noted are these: increasing doses of NFV. The procedure: Liposome technology: PTPC (1 mg/ml) was separated from rat brains and ANT (0.1 mg/ml) from rat heart mitochondria as previously described (Brenner, C. et al. Methods Enzymol 322, 243-52, 2000; Marzo, I. et al. Biomed Pharmacother 52, 248-51, 1998). Immediately after purification, pure proteins were reconstituted into proteoliposomes (phosphatidylcholin/cholesterol [5:1;w:w] for PTPC and phosphatidylcholin/cardiolipin [45:1; w:w] for ANT) (Belzacq, A. S. et al. Cancer Res 63, 541-6, 2003). […] S. et al. Cancer Res 63, 541-6, 2003). 25 μl of proteoliposomes were incubated with the indicated agents (30 min for NFV and 60 min for ATR and Vpr52-96 at RT). […] The release of 4-MU was measured by spectrofluorimetry (excitation wave length 360 nm; emission wave length 450 nm). The maximum 4-MUP release was determined by adding 5% Triton X-100 to proteoliposomes. The percentage of 4-MUP release induced by treatment of liposomes by ATR was determined as [(ATR−treated liposomes fluorescence−untreated liposomes fluorescence)/(TX-100-treated liposomes fluorescence−untreated liposomes fluorescence)]×100. The maximal fluorescence induced by 800 μM ATR was then identified as 100% 4-MUP release and the fluorescence induced by the treatment of liposomes by another product or another dose was calculated as a percentage of ATR-induced 4-MUP release.

The target of the next data set is T1, ANT (Rattus norvegicus, UniProt Q05962).
T1 construct: ANT (0.1 mg/ml) from rat heart mitochondria; from tissue; host or cells: rat heart mitochondria
T1 sequence (Q05962 1-298): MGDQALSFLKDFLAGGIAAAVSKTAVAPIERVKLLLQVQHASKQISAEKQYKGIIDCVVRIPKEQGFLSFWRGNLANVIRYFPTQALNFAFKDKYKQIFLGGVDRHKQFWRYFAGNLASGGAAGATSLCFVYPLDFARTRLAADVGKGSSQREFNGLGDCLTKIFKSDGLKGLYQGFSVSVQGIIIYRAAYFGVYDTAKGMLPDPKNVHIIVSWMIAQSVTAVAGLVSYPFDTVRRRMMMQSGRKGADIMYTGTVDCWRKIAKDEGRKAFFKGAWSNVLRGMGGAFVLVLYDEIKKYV
The experiment in a line: ANT proteoliposomes, 4-MUP fluorescence release. The following applies: p<0.05. The class given is biochemical. Here is the method: Liposome technology: PTPC (1 mg/ml) was separated from rat brains and ANT (0.1 mg/ml) from rat heart mitochondria as previously described (Brenner, C. et al. Methods Enzymol 322, 243-52, 2000; Marzo, I. et al. Biomed Pharmacother 52, 248-51, 1998). Immediately after purification, pure proteins were reconstituted into proteoliposomes (phosphatidylcholin/cholesterol [5:1;w:w] for PTPC and phosphatidylcholin/cardiolipin [45:1; w:w] for ANT) (Belzacq, A. S. et al. Cancer Res 63, 541-6, 2003). […] The release of 4-MU was measured by spectrofluorimetry (excitation wave length 360 nm; emission wave length 450 nm). The maximum 4-MUP release was determined by adding 5% Triton X-100 to proteoliposomes. The percentage of 4-MUP release induced by treatment of liposomes by ATR was determined as [(ATR−treated liposomes fluorescence−untreated liposomes fluorescence)/(TX-100-treated liposomes fluorescence−untreated liposomes fluorescence)]×100. The maximal fluorescence induced by 800 μM ATR was then identified as 100% 4-MUP release and the fluorescence induced by the treatment of liposomes by another product or another dose was calculated as a percentage of ATR-induced 4-MUP release.

Another data set relates to hepatocytes. The experiment in a line: Fas signaling ex vivo in hepatocytes from mice challenged with IV Jo-2. The following applies: hepatocytes from pretreated mice. Here is the method: Hepatocyte isolation: Four hours after treatment with 7.5 μg of Jo-2 antibody, mice were euthanized with pentobarbital (60 mg/kg, Abbott), and hepatocytes isolated via a two-step collagenase digestion (Seglen, P. O. Methods Cell Biol 13, 29-83, 1976). Following red cell lysis, hepatocytes were enumerated and evaluated for loss of ΔΨm, and caspase 8 and 3 activity. Fluorometric Caspase 8 and 3 Activity.

The subject of data set [5] is Jurkat T cells. Put plainly: Apoptosis by selective PTPC agonists (ATR, STS, PK11195) in Jurkat T cells.

Like-named read-outs stand apart in the source and are kept apart here. Bounds are passed on as bounds.

The values below come from patent publication US20050020580A1, “Materials and methods for the prevention or treatment of apoptosis and apoptosis-related diseases and conditions” (priority 2002, published 2005).

As a reminder, the MIC is the least concentration at which growth counts as inhibited. Read a high MIC as a need for much substance. What is called Cmax is the maximum level reached in the sampled fluid or tissue. Turning to `Cc1c(O)cccc1C(=O)N[C@@H](CSc1ccccc1)[C@H](O)CN1C[C@H]2CCCC[C@H]2C[C@H]1C(=O)NC(C)(C)C` [NFV, nelfinavir], the MIC with Enterococcus, in the data set on Pseudomonas aeruginosa, with Eschericheria coli and with Streptococcus bovis was above 10 µM each time. Further, the “Apoptosis induced by PA and LT” value in the data set with RAW264.7 cells is on record as “significantly inhibited in a dose responsive manner”. In data set [1], the “Levels of NFV compared to NFV alone” value is “significantly increased”. The “Procaspase 8 cleavage and activity, and Bid cleavage vs vehicle control cells” value with Jurkat T cells [2] (NFV pretreated, CH-11) was “similar”. Moreover, in the data set on Jurkat T cells [2] (NFV pretreatment, CH-11), the “ΔΨm (loss of DiOC6 retention), cytochrome c release, caspase 9, and caspase 3 cleavage and activity” value is on record as “reduced”. For the same compound, in the data set with Jurkat T cells [2] (NFV pretreatment, varying concentrations), the “Apoptosis (Annexin positivity) after CH-11 anti-CD95 antibody” value is recorded as “dose-dependent reduction in apoptosis”. Further, the “Levels of NFV in brain tissue” value in [3] is 986 μg/gm of brain tissue. Moreover, the concentration at 8 h in data set [3] (read-out: Levels of NFV in brain tissue) turned out to be 682000 ng/g. The concentration at 6 h in data set [4] (BALB/C, NFV alone, 125 mg/kg or 250 mg/kg every 8 hours by gavage, BALB/C mice, read-out: NFV plasma drug concentration 6 hours after dosing) is below 2.5 ng/mL. For the same compound, the Cmax in data set [4] (pharmacokinetic studies in mice (data not shown)) was around 8 µM. Further, in the data set with wild type yeast, the “Apoptosis induced by H2O2 (viability)” value is reported as “inhibited in a dose responsive manner”. Besides, in the data set with wild type yeast, the “Apoptosis induced by Vpr (viability)” value was “inhibited in a dose responsive manner”. Also, the “ATR induced fluorescence release from PTPC liposomes” value in the data set on PTPC is on record as “progressively inhibited”. The “ATR induced release of fluorescence from ANT liposomes” value on ANT was “inhibited”. Also, the “Vpr induced release of fluorescence from ANT liposomes” value on ANT is recorded as “inhibited”. Also, in the data set on hepatocytes, the ΔΨm loss result is “inhibited”. Besides, the “PK11195 induced apoptosis, ΔΨm, cytochrome c release, caspase 9, caspase 3 and PARP cleavage” value with Jurkat T cells [5] (PBR agonist PK11195, NFV pretreated) was “not altered”. The “STS induced apoptosis, ΔΨm, cytochrome c release, caspase 9, caspase 3 and PARP cleavage” value in the data set on Jurkat T cells [5] (VDAC agonist STS, NFV pretreated) is “not altered”.
For the compound `CC(C)c1nc(CN(C)C(=O)N[C@H](C(=O)N[C@@H](Cc2ccccc2)C[C@H](O)[C@H](Cc2ccccc2)NC(=O)OCc2cncs2)C(C)C)cs1` [RIT, ritonavir], the “RIT levels in brain tissue” value in data set [3] is reported as 32 μg/gm of brain tissue. The concentration at 8 h in data set [3] (RIT levels in brain tissue) was found to be 38000 ng/g.
